According to patent US20250206732A1, “COMPOUNDS AND METHODS FOR THE TARGETED DEGRADATION OF KRAS” (Arvinas Operations, Inc., priority 2022, published 2025):
One block for each compound: values may come before it.

Molecular target: T1, AsPC-1 HiBiT-KRASG12D (Homo sapiens, UniProt P01116, G12D)
T1 construct: insert the HiBiT tag onto the N-terminus of one or more of the endogenous KRAS alleles; endogenous in cells; host or cells: AsPC-1 (ATCC CRL-1682), CRISPR-Cas9 knock-in clone, one tagged allele
Assay: HiBiT degradation assay (G12D), AsPC-1 HiBiT-KRASG12D cells
Type: cell-based
Conditions: 24 hours treatment; for DC50: AsPC-1 HiBiT-KRASG12D cells, HiBiT luminescence; for Dmax: ASPC1, AsPC-1 HiBiT-KRASG12D cells, maximum degradation observed
How it was run: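 In this degradation format, an engineered AsPC-1 clone with HiBiT fused to the KRAS N-terminus is exposed to compounds for 24 hours, after which remaining tagged protein is quantified by lytic HiBiT luminescence.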

T1 sequence (P01116 1-188 isoform P01116-2 G12D): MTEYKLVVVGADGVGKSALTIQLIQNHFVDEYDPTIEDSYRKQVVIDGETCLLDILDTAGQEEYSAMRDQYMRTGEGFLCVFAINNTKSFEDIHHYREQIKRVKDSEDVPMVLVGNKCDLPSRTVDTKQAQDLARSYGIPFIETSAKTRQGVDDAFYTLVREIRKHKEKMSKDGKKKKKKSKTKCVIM

DC50: > 3000 nM
Compound: CCc1cccc2cc(O)cc(-c3ncc4c(N5CC6CCC(C5)N6)nc(OC[C@@]56CCCN5[C@H](CN5CCN(c7cc([C@@H](C(=O)N8C[C@H](O)C[C@H]8C(=O)N[C@@H](C)c8ccc(-c9scnc9C)cc8)C(C)C)on7)CC5)CC6)nc4c3F)c12 [Compound 95, (2S,4R)-1-[(2S)-2-[3-(4-{[(3S,7aS)-7a-{[(4-{3,8-diazabicyclo[3.2.1]octan-3-yl}-7-(8-ethyl-3-hydroxynaphthalen-1-yl)-8-fluoropyrido[4,3-d]pyrimidin-2-yl)oxy]methyl}-hexahydro-1H-pyrrolizin-3-yl]methyl}piperazin-1-yl)-1,2-oxazol-5-yl]-3-methylbutanoyl]-4-hydroxy-N-[(1S)-1-[4-(4-methyl-1,3-thiazol-5-yl)phenyl]ethyl]pyrrolidine-2-carboxamide]

Compound: CCc1cccc2cc(O)cc(-c3ccc4c(N5CC6CCC(C5)N6)nc(OC[C@]56CCCN5[C@H](COC(=O)N5CCN(c7cc(C(C(=O)N8C[C@H](O)C[C@H]8C(=O)N[C@@H](C)c8ccc(-c9scnc9C)cc8)C(C)C)on7)CC5)CC6)nc4c3F)c12 (single isomer, unassigned) [Compound 267]
Dmax: 80 to 100% | DC50: < 600 nM

Compound: CCc1cccc2cc(O)cc(-c3ncc4c(N5CC6CCC(C5)N6)nc(OC[C@]56CCCN5[C@H](COC(=O)N5CCN(c7cc([C@H](C(=O)N8C[C@H](O)C[C@H]8C(=O)N[C@@H](C)c8ccc(C#N)cc8)C(C)C)on7)CC5)CC6)nc4c3F)c12 [Compound 66, [(3S,7aR)-7a-{[(4-{3,8-diazabicyclo[3.2.1]octan-3-yl}-7-(8-ethyl-3-hydroxynaphthalen-1-yl)-8-fluoropyrido[4,3-d]pyrimidin-2-yl)oxy]methyl}-hexahydro-1H-pyrrolizin-3-yl]methyl 4-{5-[(2R)-1-[(2S,4R)-2-{[(1S)-1-(4-cyanophenyl)ethyl]carbamoyl}-4-hydroxypyrrolidin-1-yl]-3-methyl-1-oxobutan-2-yl]-1,2-oxazol-3-yl}piperazine-1-carboxylate]
Dmax: 60 to 80% | DC50: < 600 nM

DC50: > 3000 nM
Compound: CCc1cccc2cccc(-c3ncc4c(N5CCCCCC5)nc(OC[C@@]56CCCN5[C@@H](COC(=O)N5CCN(c7cc([C@H](C(=O)N8C[C@H](O)C[C@H]8C(=O)N[C@@H](C)c8ccc(-c9scnc9C)cc8)C(C)C)on7)CC5)CC6)nc4c3F)c12 (relative stereo) [Compound 49]

Compound: CCc1cccc2cc(O)cc(-c3ncc4c(N5CC6CCC(C5)N6)nc(OCCN5CC[C@@H]6CN(c7cc([C@H](C(=O)N8C[C@H](O)C[C@H]8C(=O)N[C@@H](C)c8ccc(-c9scnc9C)cc8)C(C)C)on7)C[C@@H]6C5)nc4c3F)c12 (relative stereo) [Compound 71, (2S,4R)-1-[(2R*)-2-{3-[(3aR**,7aR***)-5-{2-[(4-{3,8-diazabicyclo[3.2.1]octan-3-yl}-7-(8-ethyl-3-hydroxynaphthalen-1-yl)-8-fluoropyrido[4,3-d]pyrimidin-2-yl)oxy]ethyl}-octahydro-1H-pyrrolo[3,4-c]pyridin-2-yl]-1,2-oxazol-5-yl}-3-methylbutanoyl]-4-hydroxy-N-[(1S)-1-[4-(4-methyl-1,3-thiazol-5-yl)phenyl]ethyl]pyrrolidine-2-carboxamide]
Dmax: 80 to 100% | DC50: < 600 nM

Compound: C#Cc1c(F)ccc2cccc(-c3ncc4c(N5CC6CCC(C5)N6)nc(OC[C@@]56CCCN5[C@@H](COC(=O)N5CCN(c7cc([C@H](C(=O)N8C[C@H](O)C[C@H]8C(=O)N[C@@H](C)c8ccc(-c9scnc9C)cc8)C(C)C)on7)CC5)CC6)nc4c3F)c12 (relative stereo) [Compound 334, [(3R,8S)-8-[[4-(3,8-diazabicyclo[3.2.1]octan-3-yl)-7-(8-ethynyl-7-fluoro-1-naphthyl)-8-fluoro-pyrido[4,3-d]pyrimidin-2-yl]oxymethyl]-1,2,3,5,6,7-hexahydropyrrolizin-3-yl]methyl 4-[5-[(1R)-1-[(2S,4R)-4-hydroxy-2-[[(1S)-1-[4-(4-methylthiazol-5-yl)phenyl]ethyl]carbamoyl]pyrrolidine-1-carbonyl]-2-methyl-propyl]isoxazol-3-yl]piperazine-1-carboxylate]
Dmax: 60 to 80% | DC50: < 600 nM

Compound: C#Cc1c(F)ccc2cc(O)cc(-c3ncc4c(N5CC6CCC(C5)N6)nc(OCCN5CCC(F)(COc6cc([C@@H](C(=O)N7C[C@H](O)C[C@H]7C(=O)N[C@@H](C)c7ccc(-c8scnc8C)cc7)C(C)C)on6)CC5)nc4c3F)c12 [Compound 154, (2S,4R)-1-[(2S)-2-{3-[(1-{2-[(4-{3,8-diazabicyclo[3.2.1]octan-3-yl}-7-(8-ethynyl-7-fluoro-3-hydroxynaphthalen-1-yl)-8-fluoropyrido[4,3-d]pyrimidin-2-yl)oxy]ethyl}-4-fluoropiperidin-4-yl)methoxy]-1,2-oxazol-5-yl}-3-methylbutanoyl]-4-hydroxy-N-[(1S)-1-[4-(4-methyl-1,3-thiazol-5-yl)phenyl]ethyl]pyrrolidine-2-carboxamide]
Dmax: 80 to 100% | DC50: < 600 nM

Compound: CCc1cccc2cc(O)cc(-c3ncc4c(N5CC6CCC(C5)N6)nc(OCCN5CCC[C@@H](CN6CCN(c7cc([C@H](C(=O)N8C[C@H](O)C[C@H]8C(=O)N[C@@H](C)c8ccc(-c9scnc9C)cc8)C(C)C)on7)CC6)C5)nc4c3F)c12 [Compound 228]
Dmax: 80 to 100% | DC50: < 600 nM

Compound: CCc1cccc2cc(O)cc(-c3ncc4c(N5CC6CCC(C5)N6)nc(OC[C@@]56CCCN5[C@H](CN5CCC(F)(COc7cc([C@H](C(=O)N8C[C@H](O)C[C@H]8C(=O)N[C@@H](C)c8ccc(-c9scnc9C)cc8)C(C)C)on7)CC5)CC6)nc4c3F)c12 [Compound 335, (2S,4R)-1-[(2R)-2-[3-[[1-[[(3S,8S)-8-[[4-(3,8-diazabicyclo[3.2.1]octan-3-yl)-7-(8-ethyl-3-hydroxy-1-naphthyl)-8-fluoro-pyrido[4,3-d]pyrimidin-2-yl]oxymethyl]-1,2,3,5,6,7-hexahydropyrrolizin-3-yl]methyl]-4-fluoro-4-piperidyl]methoxy]isoxazol-5-yl]-3-methyl-butanoyl]-4-hydroxy-N-[(1S)-1-[4-(4-methylthiazol-5-yl)phenyl]ethyl]pyrrolidine-2-carboxamide]
Dmax: 80 to 100% | DC50: < 600 nM

Compound: CCc1cccc2cc(O)cc(-c3ncc4c(N5CC6CCC(C5)N6)nc(OCCN5CCC(F)(CC6CCN(c7cc([C@H](C(=O)N8C[C@H](O)C[C@H]8C(=O)N[C@@H](C)c8ccc(-c9scnc9C)cc8)C(C)C)on7)CC6)CC5)nc4c3F)c12 [Compound 239]
Dmax: 80 to 100% | DC50: < 600 nM

Compound: CCc1cccc2cc(O)cc(-c3ncc4c(N5CC6CCC(C5)N6)nc(OC[C@@]56CCCN5[C@H](COC(=O)N5CCC(Oc7cc([C@H](C(=O)N8C[C@H](O)C[C@H]8C(=O)N[C@@H](C)c8ccc(-c9scnc9C)cc8)C(C)C)on7)CC5)CC6)nc4c3F)c12 [Compound 117, [(3S,7aS)-7a-{[(4-{3,8-diazabicyclo[3.2.1]octan-3-yl}-7-(8-ethyl-3-hydroxynaphthalen-1-yl)-8-fluoropyrido[4,3-d]pyrimidin-2-yl)oxy]methyl}-hexahydro-1H-pyrrolizin-3-yl]methyl 4-({5-[(2R)-1-[(2S,4R)-4-hydroxy-2-{[(1S)-1-[4-(4-methyl-1,3-thiazol-5-yl)phenyl]ethyl]carbamoyl}pyrrolidin-1-yl]-3-methyl-1-oxobutan-2-yl]-1,2-oxazol-3-yl}oxy)piperidine-1-carboxylate]
Dmax: 80 to 100% | DC50: < 600 nM
